Literature values in US11497741B2, “Granules containing diamine derivative” (DAIICHI SANKYO COMPANY, LIMITED, priority 2018, dated 2022).

solubility (water solubility) (neutral aqueous solution (neutral buffer solution)): reduced solubility | solubility (strongly acidic aqueous solution): good solubility
SMILES: CN1CCc2nc(C(=O)N[C@@H]3C[C@@H](C(=O)N(C)C)CC[C@@H]3NC(=O)C(=O)Nc3ccc(Cl)cn3)sc2C1 [Edoxaban, N^1-(5-Chloropyridin-2-yl)-N^2-((1S,2R,4S)-4-[(dimethylamino)carbonyl]-2-{[(5-methyl-4,5,6,7-tetrahydrothiazolo[5,4-c]pyridin-2-yl)carbonyl]amino}cyclohexyl)ethanediamide]
